One data set addresses T1, KRAS G12C (Homo sapiens, UniProt P01116, G12C).
T1 construct: aa 2-169, expressed in E. coli; His-tag (TEV cleavable) (N); purchased Reaction Biology Corporation (RBC) SOS1: RBC cat #MSC-11-502; KRAS G12C: none printed; host or cells: E. coli
The data set is described as follows: KRAS G12C/SOS1 Nucleotide Exchange Assay (SOS1-mediated Bodipy-GDP to GTP exchange). The data set is classed as biochemical. The settings on record: substrate Bodipy-GDP/Kras G12C, 0.5% DMSO; 30 min pre-incubation at RT; dRFU analysis method for covalent inhibitors. As to the method: The excess Bodipy-GDP is separated from loaded protein using a spin desalting column.
• 1. […] Deliver compounds in 100% DMSO into buffer using acoustic technology (Echo550; nanoliter range). • 3. […] Prepare 3× (SOS1+GTP) solution in reaction buffer. • 5. Deliver 5 μL of SOS1+GTP solution into reactions wells (deliver GTP only to column 1 for no SOS1 control). • 6.
where Yraw is defined as fluorescence at time t, Ao is the average initial fluorescence with no SOS1, and M is the minimum fluorescence at the end of the reaction at the maximum SOS1.
The background subtracted signals (no SOS1 protein wells were used as background) were converted to % activity relative to DMSO controls. Data was analyzed using GraphPad Prism 4 with “sigmoidal dose-response (variable slope)”; 4 parameters with Hill Slope. The constraints were bottom (constant equal to 0) and top (must be less than 120).

Data set [1] in a line: Pharmacokinetics in male CD-1 mice. The data set is classed as in vivo. To be noted: for MRT inf: read-out: MRT0-inf; for MRT last: read-out: MRT0-last. The method, then: The pharmacokinetic profile of the Example 2 (compound la) was determined in male CD-1 mice by WuXi AppTec Co., Ltd., 1318 Wuzhong Avenue, Wuzhong District, Suzhou, China, 215104.
Where [2] appears, read: mouse, 30 mg/kg PO, mean plasma.

Molecules are shown by their SMILES. Read-outs that look alike come from different tables or passages of the source.

T1 sequence (P01116 2-169 G12C): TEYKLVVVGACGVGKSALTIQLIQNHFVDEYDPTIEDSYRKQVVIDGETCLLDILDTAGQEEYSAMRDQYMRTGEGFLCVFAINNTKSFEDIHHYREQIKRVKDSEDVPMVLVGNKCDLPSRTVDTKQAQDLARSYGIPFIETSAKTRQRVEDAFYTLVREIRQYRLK

On KRAS G12C, `C=CC(=O)N1CCN(c2nc(OC[C@@H]3CCCN3C)nc3cc(-c4cccc5cccc(Cl)c45)cnc23)C[C@@H]1CC#N` [Example 1, 2-((S)-1-Acryloyl-4-(7-(8-chloronaphthalen-1-yl)-2-(((S)-1-methylpyrrolidin-2-yl)methoxy)pyrido[3,2-d]pyrimidin-4-yl)piperazin-2-yl)acetonitrile] returned an IC50 of 0.027 µM.

Compound `C=C(F)C(=O)N1CCN(c2nc(OC[C@@H]3CCCN3C)nc3cc(-c4cccc5cccc(Cl)c45)cnc23)C[C@@H]1CC#N` [Example 2, 2-((S)-4-(7-(8-Chloronaphthalen-1-yl)-2-(((S)-1-methylpyrrolidin-2-yl)methoxy)pyrido[3,2-d]pyrimidin-4-yl)-1-(2-fluoroacryloyl)piperazin-2-yl)acetonitrile] returned an IC50 at KRAS G12C of 0.063 µM. In data set [1] (3 mg/kg IV, mean plasma), this compound gave an AUCExtra of 9.23%, an AUMCExtra of 35.2% and a Tlast of 8.00 h. In data set [1] (30 mg/kg PO, mean plasma), this compound showed an AUCExtra of 17.1%, an AUMCExtra of 43.8% and a Tlast of 8.00 h. Moreover, in data set [1] (mouse, 3 mg/kg IV, mean plasma), the total exposure AUC(0-inf) was determined as 2450 ng·h/mL, the exposure AUC(0-t) amounted to 2220 ng·h/mL, the C0 was found to be 1270 ng/mL and the clearance turned out to be 20.4 mL/min/kg. In data set [1] (mouse, 3 mg/kg IV, mean plasma), the MRT inf is 2.81 h and the MRT last was 2 h. The half-life in data set [1] (mouse, 3 mg/kg IV, mean plasma, Rsq_adj 0.828 (<0.9, might not be accurately estimated)) was 1.89 h. In addition, the Vd in data set [1] (mouse, 3 mg/kg IV, mean plasma, read-out: Vdss) came out at 3.44 L/kg. Besides, in data set [1] (setting [2]), the AUC(0-inf) is 7070 ng·h/mL, the area under the curve AUC(0-t) turned out to be 5860 ng·h/mL, the maximum concentration (Cmax) is 1220 ng/mL and the Tmax came out at 1 h. For the same compound, in data set [1] (setting [2]), the half-life is 2.88 h, the MRT inf was determined as 4.75 h and the MRT last worked out at 3.22 h. Besides, the bioavailability in data set [1] (mouse, plasma, 30 mg/kg PO vs 3 mg/kg IV, calculated from AUC0-inf with nominal dose, read-out: Bioavailability (% F)) is 28.8%.

The record behind these values is US20240140948A1, “PYRIDOPYRIMIDINE DERIVATIVES AS KRAS INHIBITORS” (BETA PHARMA, INC., priority 2021, published 2024).
